Assay results published in patent US9980967B1, “Method for overcoming drug resistance of EGFR mutation and cancerous stemness of human non-small cell lung carcinoma” (NATIONAL CHIAO TUNG UNIVERSITY, priority 2017, dated 2018).

How the values were obtained:
H1975 xenograft tumors = experiment: Xenografted human NSCLC (H1975) tumors in nude mice; type: in vivo; conditions: 30 mg/kg once per four days, during the treatment period
From the text: The results were obtained from twelve mice and the bar represents the mean±S.E.M.**p<0.01, indicating significant difference between control and SP101 treatment group mice. ###p<0.001 indicates significant differences between SP101 and Gefitinib-treated mice.
The tumor weight was means±*p<0.05 indicating significant differences between control and SP101 treatment group mice. #p<0.05 indicates significant differences between SP101 and Gefitinib-treated mice.
NSCLC tumors in nude mice were established. Seven-week-old nude mice were subcutaneously injected with 3×10^6 H1975 cells. Please refer to FIGS. 7 and 8. After 7 to 10 days inoculation, the nude mice were treated with vehicle or 30 mg/kg SP101 or 30 mg/kg Gefitinib once per four days and tumor sizes in the nude mice were measured every four days. The nude mice were sacrificed after treatment for 16 days; the tumors were harvested to measure tumor volume/weight and further analyze tumor tissues. […] Please refer to FIG. 9.

A549-ON cells = experiment: Annexin V/PI apoptosis flow cytometry in A549-ON cells; type: cell-based, human; conditions: 30 μM, early and late apoptosis, flow cytometry
Experimental: At the end of treatment, apoptosis was measured by Annexin V-PI staining using flow cytometry analysis. The population of Annexin V+/PI− cells represents cells undergoing early apoptosis (low right), whereas the fraction of Annexin V+/PI+ cell are those undergoing late apoptosis (upper right). The representative flow data were shown from one of three separate experiments with similar findings.
The bar represents the mean±S.E.M. ***p<0.001 indicates significant difference between untreated and SP101 or Gefitinib treated samples.
We compared the apoptosis levels of SP101 and Gefitinib in cancer stem-like A549-ON cells by Annexin V and PI staining. Please refer to FIG. 19. […] Please refer to FIG. 20. The average of total apoptosis follows SP101 and Gefitinib in the A549-ON cells around 69.29% and 7.59%, respectively.

COc1cc2ncnc(Nc3ccc(F)c(Cl)c3)c2cc1OCCCN1CCOCC1 [Gefitinib, reference compound]
body weight of the nude mice (H1975 xenograft tumors): did not alter | average of total apoptosis (A549-ON cells): ~7.59%
